Test results from patent US20150218120A1 (The Regents of the University of California, priority 2011, published 2015).
“And” between values parts separate entries of the source, which are not always exact repeats. Equal values may be shown once. Read-outs that look alike come from different tables or passages of the source.

Legend:
[1] = molecular target: T1, HIV-1 IN (Human immunodeficiency virus type 1 group M subtype B, UniProt P12497); assay: HIV-1 IN 3′-processing (3P) gel-based catalytic assay; format: biochemical; set-up: made in house
Excerpt: As described above, HIV-1 IN has two functions: 3′-processing (3P) and strand transfer (ST).
Gels were dried and reaction products were visualized and quantified with a Typhoon 8600 (GE Healthcare, Little Chalfont, Buckinghamshire, UK).

[2] = molecular target: T1, HIV-1 IN; assay: HIV-1 IN strand transfer (ST) gel-based catalytic assay; format: biochemical; set-up: made in house; settings: for IC50: Strand Transfer IC50, 32P-end labeled oligonucleotides in solution, gel-based separation
Excerpt: As described above, HIV-1 IN has two functions: 3′-processing (3P) and strand transfer (ST). […] All 21 RCD compounds were screened for inhibitory activity against the 3P and ST reactions using published protocols (Metifiot M, et al., Biochemistry 49:3715-3722 (2010); Marchand C, Neamati N, & Pommier Y, Methods Enzymol 340:624-633 (2001)).
Some assays use preassembled HIV-1 IN on immobilized oligonucleotides (Pace P, et al., J. Med. Chem. 50(9):2225-2239 (2007)), whereas the assay provided herein uses ^32-P-end labeled oligonucleotides in solution and gel-based separation of the reaction products.
Recombinant HIV-1 IN and oligonucleotide substrates were obtained as previously reported (Marinello et al. Biochemistry 2008, 47, 9345-9354; Metifiot et al. Antimicrob. Agents Chemother. 2011, 55, 5127-5133; Hare et al. Mol. Pharmacol. 2011, 80, 565-572). Integrase reactions were performed in 10 μL total volume including 400 nM HIV-1 IN, 20 nM 5′-end [^32P]-labeled oligonucleotide substrate, and 1 μL inhibitor solution in 50 mM MOPS, pH 7.2, 7.5 mM MgCl2, and 14.3 mM 2-mercaptoethanol Inhibitor dilutions were in DMSO, and DMSO without drug was used as a control. Reactions were incubated at 37° C. for 60 min, terminated by adding 10 μL loading dye (10 mM EDTA, 98% deionized formamide, 0.025% xylene cyanol, and 0.025% bromophenol blue), and were subjected to electrophoresis in 20% polyacrylamide-7 M urea gels. Gels were dried and reaction products were visualized and quantified with a Typhoon 8600 (GE Healthcare, Little Chalfont, Buckinghamshire, UK).

[3] = test system: HIV; assay: microbe, parasite or virus in culture; format: cell-based; settings: read-out: Antiviral Activity IC50
Procedure: (§1) In addition to cell-free in vitro assays, eight RCD compounds were examined for inhibition of viral replication (Table 1) (Day J R, et al., J. Virol. Meth. 137(1):125-133 (2006)).
Computational docking was preformed using the Glide software package (Glide v5.5; Schrodinger, Inc.). Enzyme and cell-based assays were performed as previously described (Metifiot M, et al., Biochemistry 49:3715-3722 (2010); Marchand C, Neamati N, & Pommier Y, Methods Enzymol 340:624-633 (2001); Day J R, et al., J. Virol. Meth. 137(1):125-133 (2006)). Complete synthetic and experimental details are provided herein.

[4] = molecular target: T1, HIV-1 IN; settings: read-out: IC50 against the strand transfer reaction of HIV-1 IN, reported value; Pace et al. 2007; preassembled IN on immobilized oligonucleotides; cited from earlier work
[5] = test system: P4R5 cells; assay: Toxicity assay on P4R5 cells; format: cell-based; settings: at a concentration of 10 μM
Excerpt: as §1

[6] = Human immunodeficiency virus 1, P4/R5, P4R5 cells

SMILES | IC50 ([1]; read-out: 3'-Processing IC50) | IC50 [2] | also measured
O=C(NCc1ccc(F)cc1)c1cccc(O)c1O [RCD-8, N-(4-Fluorobenzyl)-2,3-dihydroxybenzamide] | > 100 µM | 39.4 ± 4 µM | –
O=C(NCc1ccc(F)cc1)c1cccc(C(=O)NCc2ccc(F)cc2)[n+]1[O-] [RCD-17, 2,6-Bis((4-fluorobenzyl)carbamoyl)pyridine 1-oxide] | – | > 100 µM | IC50 [3, 6]: > 100 µM; IC50 [1]: > 300 µM
O=C(NCc1ccc(F)cc1)c1ccc2cccnc2c1O [RCD-12] | – | – | IC50 [3, 6]: < 4 µM; IC50 ([3]; P4R5 cells): 2.3 µM
O=C(NCc1ccc(F)cc1)c1cccc(C(=O)NCc2ccc(F)cc2)c1O [RCD-19, N1,N3-Bis(4-fluorobenzyl)-2-hydroxyisophthalamide] | > 300 µM | > 300 µM | –
O=C(NCc1ccc(F)cc1)c1ccccc1O [RCD-15, N-(4-Fluorobenzyl)-2-hydroxybenzamide] | > 100 µM | > 100 µM | –
Cn1ccc(=O)c(O)c1C(=O)NCc1ccc(F)cc1 [RCD-2] | > 100 µM | > 100 µM | –
O=C(O)c1cccc(C(=O)NCc2ccc(F)cc2)[n+]1[O-] [RCD-16, 2-Carboxy-6-((4-fluorobenzyl)carbamoyl)pyridine 1-oxide] | 21.4 ± 3 µM | 9.2 ± 1.3 µM | –
Cc1cc(=O)c(O)c(C(=O)NCc2ccc(F)cc2)o1 [RCD-5] | 59.5 ± 1.4 µM | 0.55 µM and < 15 µM | –
O=C(NCc1ccc(F)cc1)c1ccc2cccc(O)c2n1 [RCD-13, N-(4-Fluorobenzyl)-8-hydroxyquinoline-2-carboxamide] | > 100 µM | > 100 µM | IC50 [3, 6]: > 100 µM; inhibition at 100 µM ([2]; read-out: Strand transfer inhibition): < 30%
COc1cccc(C(=O)NCc2ccc(F)cc2)c1O [RCD-9, N-(4-Fluorobenzyl)-2-hydroxy-3-methoxybenzamide] | > 100 µM | > 100 µM | Strand transfer activity in words ([2]; concentrations as high as 100 μM): complete loss of activity
Cc1cc(=O)c(O)c(C(=O)NCc2ccc(F)cc2)n1C [RCD-3] | > 100 µM | > 100 µM | –
Cc1nc(C(=O)NCc2ccc(F)cc2)c(O)c(=O)[nH]1 [RCD-1, N-(4-Fluorobenzyl)-5-hydroxy-2-methyl-6-oxo-1,6-dihydropyrimidine-4-carboxamide] | – | ~1 µM and 1 µM | IC50 [1]: > 100 µM; IC50 [4]: 0.06 µM; Selectivity for ST versus 3P reaction ([2]; ST versus 3P): selectivity for the ST versus 3P reaction
O=C(NCc1ccc(F)cc1)c1ccc(C(=O)NCc2ccc(F)cc2)c(O)c1O [RCD-11, N1,N4-Bis(4-fluorobenzyl)-2,3-dihydroxyterephthalamide] | > 300 µM | 1.7 µM and < 2 µM | –
Cc1occ(O)c(=O)c1C(=O)NCc1ccc(F)cc1 | > 100 µM | 56 ± 7 µM | –
O=C(NCc1ccc(F)cc1)c1occc(=O)c1O [RCD-4] | > 100 µM | 0.96 µM | –
O=C(NCc1ccc(F)cc1)c1cccc(=O)n1O [RCD-7] | > 100 µM | 19.7 ± 1.6 µM | –
CNC(=O)c1ccc(C(=O)NCc2ccc(F)cc2)c(O)c1O [RCD-10, N1-(4-Fluorobenzyl)-2,3-dihydroxy-N4-methylterephthalamide] | – | 1.5 µM and < 15 µM and < 2 µM | IC50 [3, 6]: < 4 µM; IC50 ([3]; P4R5 cells): 4 µM; IC50 [1]: > 200 µM
CNC(=O)c1cccc(C(=O)NCc2ccc(F)cc2)c1O [RCD-18, N1-(4-Fluorobenzyl)-2-hydroxy-N3-methylisophthalamide] | – | > 300 µM | IC50 [3, 6]: > 100 µM; IC50 [1]: > 300 µM
O=C(NCc1ccc(F)cc1)c1ccc2ccc[n+]([O-])c2c1O [RCD-14, 7-((4-Fluorobenzyl)carbamoyl)-8-hydroxyquinoline 1-oxide] | – | 3.8 ± 0.3 µM | IC50 [1]: 40.5 ± 2 µM; Toxicity on P4R5 cells [5]: some toxicity
